Measurements from patent US20240140983A1, “SINGLE STRANDED DNA ENZYME INHIBITORS” (MASSEY UNIVERSITY, priority 2021, published 2024).
Blank lines part the entries; values can stand above or below the molecule they belong to.

How the values were obtained:
[1] = target: A3BCTD-QM-ΔL3-AL1swap; test: NMR assay: inhibition of A3BCTD-QM-ΔL3-AL1swap-catalyzed deamination of a linear substrate (initial rates); type: biochemical, human; conditions: for Ki / Vmax: 5′-AT3dCAT3 substrate, 50 nM enzyme; for inhibition effect: Km of 5′-AT3dCAT3 (150 μM) compared with apparent Ki: non-linear regression analysis
Protocol: FIG. 6. is a set of graphs showing inhibition of A3BCTD-QM-ΔL3-AL1swap-catalyzed deamination of 5′-T4CAT by dZ/FdZ-containing linear and cross-linked oligos. Initial rate of deamination was measured under the following experimental conditions: 400 μM of 5′-T4CAT, 8 μM (A, B) or 4 μM (C) of dZ/FdZ-containing oligos, 300 nM (A, B) or 200 nM (C) of A3BCTD-QM-ΔL3-AL1swap in a 50 mM sodium phosphate buffer (pH 6.0) containing 100 mM NaCl, 2.5 mM β-mercaptoethanol, 0.1 M EDTA, 50 μM 3-(trimethylsilyl)-2,2,3,3-tetradeuteropropionic acid (TSP) at 25° C. Error bars are estimated standard deviations from triplicate measurements.
FIG. 13 is a graph showing the inhibition of A3BCTD-QM-ΔL3-AL1swap-catalyzed deamination of 5′-T4CAT by linear oligos containing dZ, 34R, 34S and 46. Initial rate of deamination was measured under the following experimental conditions: 400 μM of 5′-T4CAT, at oligo concentration as indicated, 300 nM of A3BCTD-QM-ΔL3-AL1swap in a 50 mM sodium phosphate buffer (pH 6.0) containing 100 mM NaCl, 2.5 mM β-mercaptoethanol, 0.1 M EDTA, 50 μM 3-(trimethylsilyl)-2,2,3,3-tetradeuteropropionic acid (TSP) and 20% D2O at 25° C. Error bars are estimated standard deviations from triplicate measurements.
The inhibition potential of cross-linked oligos was investigated by changing dC to dZ or FdZ in these constructs. The NMR assay described in Example 4 was used to compare the internally cross-linked dZ/FdZ-containing oligos with a linear DNA inhibitor containing dZ/FdZ (dZ-linear is 5′-AT3dZAT3, FdZ-linear is 5′-AT3FdZAT3) that were characterized earlier.^1-2 Residual activity of A3BCTD-QM-ΔL3-AL1swap on the unmodified oligo (5′-T4dCAT) as a substrate in the presence of a known concentration of dZ/FdZ-containing inhibitors (linear and cross-linked) was measured using NMR assay.
(§1) For determination of inhibition constants (KI) of inhibitors the inventors first evaluated kinetic parameters of A3BCTD-QM-ΔL3-AL1swap on two DNA substrates (Table 5), which were used to detect the residual deamination rate in the presence of inhibitors (Table 6). Fitting the experimental data by non-linear least squares using a global fit provided similar values of kinetic parameters to those obtained by the linearized Lineweaver-Burk plot (Table 5). Then, the inhibition constants for strongest cross-linked inhibitors were calculated by several methods assuming a competitive mode of inhibition^1 (Table 6) based on experiments in which the concentration of the individual inhibitor was varied, and the residual deamination initial rate was measured.
Residual activity of A3BCTD-QM-ΔL3-AL1swap on the unmodified oligo (5′-T4CAT) as a substrate in the presence of a known concentration of inhibitors was measured using the NMR assay as described in Example 5.

[2] = target: A3BCTD-QM-ΔL3-AL1swap; test: Isothermal titration calorimetry (ITC), binding to A3BCTD-QM-ΔL3-AL1swap; set-up: species or system human; conditions: ITC buffer 3 (Na+/K+ phosphate, pH 6.0, 200 mM trimethylamine N-oxide), 25° C
From the text: (§2) The inventors used isothermal titration calorimetry (ITC) to determine binding of the cross-linked oligos to A3 enzymes, specifically to A3A-E72A, where the active-site glutamic acid is replaced with alanine, and to the catalytically competent A3BCTD-QM-ΔL3-AL1swap and compared this binding to that of linear oligos.
For oligos containing dZ, catalytically active A3BCTD-QM-ΔL3-AL1swap was used, as it has the active-site glutamic acid required for protonation of N3 in dZ, which activates C4 in dZ to accept nucleophilic OH^−/H2O coordinated to the Zn^2+, which converts dZ into a transition-state or an intermediate analogue of cytidine deamination.^8
For A3BCTD-QM-ΔL3-AL1swap we used ITC buffer 3: 50 mM Na^+/K^+ phosphate, pH 6.0, 200 mM trimethylamine N-oxide dihydrate, 2.5 mM TCEP, 200 μM EDTA. Data evaluation was performed with the software provided by the supplier of MicroCal ITC200.

[3] = target: A3A-E72A (Homo sapiens, UniProt P31941, E72A); test: Isothermal titration calorimetry (ITC), binding to A3A-E72A; conditions: 25° C
Sequence of A3A-E72A (P31941 whole entry E72A): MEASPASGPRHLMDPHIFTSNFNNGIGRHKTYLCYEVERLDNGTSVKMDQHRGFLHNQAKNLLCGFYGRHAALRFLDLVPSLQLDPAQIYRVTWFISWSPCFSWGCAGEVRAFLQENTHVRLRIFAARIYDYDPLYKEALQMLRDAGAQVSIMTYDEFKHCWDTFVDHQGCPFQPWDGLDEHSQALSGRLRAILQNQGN
Protocol: as §2
Desalted unmodified DNA oligonucleotides were purchased (Integrated DNA Technologies) at 1 or 5 μmol synthesis scale and dissolved in one of the buffers described below to give 10 mM solutions. ITC experiments were conducted at 25° C. using a MicroCal ITC200 (now Malvern Instruments) isothermal titration calorimeter. […] The ratio of protein to oligonucleotide concentration is usually 1:10. Titrations are made up of 30 individual additions. To prevent protein precipitation during the long time-scale of the experiment it was necessary to used improved ITC buffers. ITC buffer 1: 50 mM MES, pH 6.0, 100 mM NaCl, 200 μM EDTA, 1 mM β-mercaptoethanol and ITC buffer 2: 50 mM Na^+/K^+ phosphate, pH 6.0, 50 mM NaCl, 50 mM choline acetate, 2.5 mM TCEP, 200 μM EDTA with 30 mg/mL BSA. After preparation, ITC buffer 2 was frozen and defrosted before the experiments. ITC buffer 2* is freshly prepared buffer 2.
In contrast, A3A-E72 Å was used, particularly for oligos containing dC so that the complications of deamination can be avoided, although this mutation, notwithstanding no change to active-site structure, does cause a small but significant diminution in ligand binding^1 through loss of hydrogen bonding to the ligand. The inventors expect that the binding of inactivated A3BCTD-QM-ΔL3-AL1swap to the substrate will be close to or even worse than Km of 200 μM, which places substrate binding outside ITC applicability. One should emphasise that the composition of buffers used for NMR kinetic and ITC binding experiments are different, mainly because proteins in ITC experiments need to be at much higher concentration than for kinetic assays (10-100 μM for ITC versus 20-300 nM in kinetic experiments).

[4] = test system: A3BCTD-QM-ΔL3-AL1swap; test: Real-time NMR assay: deamination of DNA substrates by A3BCTD-QM-ΔL3-AL1swap; type: biochemical, human
Protocol: FIG. 5 is a set of graphs showing the initial rate of A3BCTD-QM-ΔL3-AL1swap catalyzed deamination of terminally (A), internally (B-D) cross-linked oligos and a dC-hairpin in comparison with the linear substrate. Substrate concentrations are 100 μM in (A and B), 800 μM in (C) and 400 μM in (D). Enzyme concentrations are 50 nM in (A and B) and 300 nM in (C) and 100 nM in (D). Buffers are 50 mM citrate-phosphate (pH 5.5 for A-C) and 50 mM Na-phosphate (pH 6.0 for D), 200 mM NaCl, 2 mM β-mercaptoethanol, 200 μM 4,4-dimethyl-4-silapentane-1-sulfonic acid (DSS) and 10% D2O at 25° C. Error bars are estimated standard deviations from triplicate measurements.
Real-time NMR assays are advantageous because they are direct, utilizing only A3 enzymes and oligos in a suitable buffer system, in contrast to many fluorescence-based assays where a secondary enzyme and a fluorescently modified oligo are used. The NMR-based assay described herein allows a Michaelis-Menten kinetic model to be used to characterize both A3 substrates and inhibitors based on direct determination of the initial velocity of deamination of various ssDNA substrates (including modified substrates) in the presence of A3 enzymes.
The A3 enzyme used in the experiments detailed herein is the well-characterized and very active A3BCTD-QM-ΔL3-AL1swap,^1 where loop 3 is deleted and loop 1 is replaced with the corresponding loop 1 from A3A in addition to four point mutations remote to the enzyme's active site. […] Recent work by the inventors on the related enzyme, A3G, has shown that inhibition of the C-terminal catalytic domain is mirrored by the inhibition of the full-length enzyme, validating their approach of using catalytic C-terminal domains for inhibitor development.^2
Using the 9-mer oligonucleotide ATTTCATTT (5′-AT3dCAT3) (SEQ ID NO: 1) as the standard substrate, the inventors compared the deamination of both terminally and internally cross-linked oligos prepared as above using a previously described real-time NMR assay.^1, 45 For the terminally cross-linked oligos, decreased rates of deamination were observed from 9-mer to 5-mer. The number of phosphates of the modified 9-mer sequence is the same as for the 9-mer DNA control (FIG. 5A). […] The next internal cross-link 2 was designed based on modified nucleotides dU^E and dA^N3. […] However, a marked 2.3 times increase in deamination rate was detected for oligo dC[C^N3(−2),H^E1(+1)]X having internal cross-link 3 connecting −2 and +1 positions in the DNA sequence (FIG. 5D). It is surprising that synthetic oligo dC[C^N3(−2),H^E1(+1)]X was deaminated even faster than a native DNA hairpin.
as §1

[5] = target: T1, wild-type APOBEC3A (Homo sapiens, UniProt P31941); test: NMR assay: wild-type APOBEC3A-catalysed deamination of dC-hairpin-3, Lambert's W function; type: biochemical; conditions: pH 7.4, 140 nM enzyme, 500 μM dC-hairpin-3
T1 construct: His7 (C); made in house
T1 sequence (P31941 whole entry): as the sequence (P31941 whole entry E72A) above, with A72E counted along it
Protocol: Inhibitors were tested in the NMR assay monitoring APOBEC3A-catalysed deamination of dC-hairpin-3. Deamination data was analysed using Lambert's W function as described in Example 5.

[6] = target: human CDA (Homo sapiens, UniProt P32320); test: UV-Vis based deamination assay against human CDA; type: biochemical; conditions: 27 nM human CDA; for Ki: 2 mM dC, absorbance at 286 nm, Lambert's W function
Sequence of human CDA (P32320 whole entry): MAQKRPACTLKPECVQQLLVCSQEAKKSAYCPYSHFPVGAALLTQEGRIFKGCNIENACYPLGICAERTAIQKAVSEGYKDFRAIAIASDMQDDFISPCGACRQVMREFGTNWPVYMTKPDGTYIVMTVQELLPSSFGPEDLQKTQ
Protocol: FIG. 12 is a graph showing the initial rate of human CDA-catalysed deamination of 2′-deoxycytidine (dC) in the absence (no inhibitor) and presence of dZ, 34R and 34S. Conditions: 100 μM dC as a substrate, using different concentrations of inhibitors, 27 nM human CDA in 20 mM Na-phosphate buffer, pH 6.0 supplemented with 100 mM NaCl at 25° C. Absorbance was measured at 286 nm at the start of deamination. Samples labelled as “preincubated” refer to experiments when the enzyme was preincubated for 5 min with inhibitors and then 100 μM dC was added.
The seven-membered ring-containing nucleosides synthesized were tested for their inhibition potential against human CDA enzyme by a UV-Vis based deamination assay. All data were obtained by monitoring absorbance of 2′-deoxycytidine at 286 nm and 25° C., where the deamination of cytosine leads to a decrease in absorption. For nucleosides 34R and 34S, the condition of the assay used was 27 nM human CDA and 100 μM dC as a substrate in 20 mM Na-phosphate buffer, 100 mM NaCl at pH 6.0; an average of 8 measurements was done for each nucleoside. As the original 7-membered ring nucleosides were reported as slow-binding inhibitors of CDA,^10 preincubation conditions of an inhibitor with CDA were also tested for the assay and labelled as ‘preincubation’. Here, the nucleosides were preincubated with the enzyme for 5 min and then 100 μM dC substrate was added to start the measurements (FIG. 12).

[7] = Lineweaver-Burk plot for the substrate/Dixon plot for the inhibitor
[8] = Non-linear regression analysis for both substrate and inhibitor
[9] = Linear analysis (Lineweaver-Burk plot)

Molecule: ATTTCATTT [5′-AT3dCAT3]
Kd ([3]; ITC buffer 1 (50 mM MES, pH 6.0)): 200 ± 60 nM
Kd ([3]; ITC buffer 2 (Na+/K+ phosphate, pH 6.0, BSA; frozen and defrosted)): 120 ± 30 nM
Kd ([3]; ITC buffer 2* (freshly prepared buffer 2)): 130 ± 30 nM
Km [4, 9]: 200 ± 30 µM
Vmax [4, 9]: 0.014 ± 0.002 µM/s
kcat [4, 9]: 0.29 ± 0.04 s⁻¹
Km ([4]; Non-linear regression analysis): 150 µM
Vmax ([4]; Non-linear regression analysis): 0.0126 ± 0.0008 µM/s
kcat ([4]; Non-linear regression analysis): 0.26 ± 0.02 s⁻¹

Molecule: 5′-AT3FdZAT3 [FdZ-linear]
inhibition of deamination of 5′-T4CAT (in words) ([1]; 400 μM 5′-T4CAT, 8 or 4 μM oligo, 300 or 200 nM enzyme, pH 6.0 (FIG. 6)): more powerful inhibitor of A3BCTD-QM-ΔL3-AL1swap than dZ-linear oligo
Ki [1, 7]: 2100 ± 800 nM
Ki [1, 8]: 4400 ± 700 nM
Vmax [1, 8]: 0.0126 ± 0.0008 µM/s
inhibition effect: Km of 5′-AT3dCAT3 (150 μM) compared with apparent Ki [1]: 35 fold
Ki [5]: 2400 ± 940 nM

Molecule: 5'-TGCGCTT-46-GCGCT [46-hairpin-3]
Ki [5]: 290 ± 40 nM

Molecule: O=C1NCC=CCN1[C@H]1C[C@H](O)[C@@H](CO)O1 [compound 46, 1-[2-deoxy-β-D-erythro-pentofuranosyl]-1,3,4,7-tetrahydro-2H-1,3-diazepin-2-one]
Ki [6]: 430 ± 80 nM

Second part, led by results:

Ki [1, 7]: 7500 ± 1700 nM
Ki [1, 8]: 7000 ± 1300 nM
inhibition effect: Km of 5′-AT3dCAT3 (150 μM) compared with apparent Ki [1]: 20 fold
Kd [2]: 11400 ± 2300 nM
Molecule: 5′-AT3dZAT3 [dZ-linear]
Vmax [1, 8]: 0.0126 ± 0.0008 µM/s

Ki [6]: 10700 ± 500 nM
Molecule: O=c1ncccn1[C@H]1C[C@H](O)[C@@H](CO)O1 [dZ, 2′-deoxyzebularine]

inhibitory potential against human CDA ([6]; 100 μM dC, pH 6.0, 25° C, with and without 5 min preincubation (FIG. 12)): some inhibitory potential
Molecule: O=C1CC[C@H](O)CCN1[C@H]1C[C@H](O)[C@@H](CO)O1 [compound 34S, 1-[2-deoxy-β-D-erythro-pentofuranosyl]-(S)-5-hydroxyazepan-2-one]
